# Assay results published in publication PMC11161644, “An effective and rapidly degradable disinfectant from disinfection byproducts” (Nature Communications, 2024).
# Several values for one entry are separate records, joined by “and”; a condition that tells them apart may be missing. Equal entries are not always repeated.
# Tests used:
# S. aureus (ATCC 25923) = assay: Inactivation of S. aureus (contact time 5 min); assay type: cell-based, Staphylococcus aureus; settings: pH 7.2, contact time 5 min
# Method: The chemicals and reagents used are detailed in Supplementary Note 1. The bacteria E. coli (ATCC 25922) and S. aureus (ATCC 25923) were cultured aerobically in Luria-Bertani broth (Sigma-Aldrich) and Tryptone Soya broth (Oxoid), respectively, at 37 °C for 16 h. The fungus C. albicans (ATCC 14053) was aerobically cultured in Sabouraud Dextrose broth (Difco) at 37 °C for 24 h. The microorganism cells were harvested by centrifugation at 1200×g (10 min, 4 °C) and resuspended in phosphate-buffered saline (PBS, 10 mM, pH 7.2). The disinfection experiments were performed in PBS solutions (10 mM, pH 7.2) with an initial concentration of E. coli, S. aureus, or C. albicans of 10^6‒10^7 cells per milliliter. A contact time of 5 min was used in accordance with the recommended time range of 0.25–10 min by USEPA for surface disinfection. Preliminary tests were conducted to determine the appropriate range of DBP doses. The appropriate dose range was established when the lowest and highest doses could achieve <1-log and >3-log of microbial inactivation, respectively. Based on the preliminary results, a series of doses of DBPs were added to the cell suspensions at room temperature (22 ± 1 °C). After the contact time of 5 min, the microorganism cells were enumerated following a membrane filter method. Briefly, serial 10-fold dilutions were conducted for the disinfected samples and the control sample without disinfection. Each diluted suspension was subjected to filtration through 0.45-μm membrane, which was then placed on a petri dish. The Petri dishes containing E. coli, S. aureus, and C. albicans were incubated in m-FC medium (Becton Dickinson & Co) at 45 °C for 24 h, in Tryptone Soya broth at 37 °C for 24 h and in Sabouraud Dextrose broth at 37 °C for 24 h, respectively. After incubation, the colony-forming units within a statistically reasonable range (20–80) were counted.
# P. dumerilii embryos = assay: Developmental toxicity assay with P. dumerilii embryos, dilution factor of in-use concentration (EC50,DF), also after degradation in darkness; assay type: in vivo, Platynereis dumerilii; settings: for Normal development: 2,6-DCQ
# From the text: The DBP doses for 3-log E. coli reduction (pH 7.2) were set as the in-use concentrations, which were serially diluted and added to the P. dumerilii embryos at 12-h postfertilization. A dilution factor was defined as the ratio of the in-use concentration to the exposure concentration. Each exposure set contained a control sample (i.e., the embryos at 12-h postfertilization developed in seawater without the addition of DBPs). By 24-h postfertilization, normally developed embryos should have reached the first larval stage. An inverted stereomicroscope (×40 magnification) was used to observe the larvae. The normal development percentage was calculated as the ratio of normally developed embryos to total embryos. By plotting the curve of the normal development percentage versus the dilution factor, the EC50,DF value (i.e., the dilution factor corresponding to 50% of the normal development percentage of the control sample) was obtained using SigmaPlot 12. The developmental toxicity test was conducted in duplicate.
# [1] = Degradation in seawater with simulated solar irradiation; settings: for half-life at 10 mg L−1: buffer; for Ln (C/C0): 0 h
# Method: The solar photolysis experiments were conducted in a chamber equipped with eight simulated sunlight full-spectrum lamps (BlueMax 5900, Full Spectrum Solutions). The temperature in the chamber was maintained at 20 °C. The total intensity of simulated sunlight was determined using a digital photometer (DT-1010B, Shenzhen Golden Octopus, China). Quartz flasks were positioned in the chamber where the total intensity of simulated sunlight was 4.79 ± 0.04 mW cm^−2 for each quartz flask. […] A DBP was added at 10 mg L^−1 to 50 mL pretreated seawater (pH 8.2) in the quartz flasks and exposed to the simulated solar irradiation for 0‒96 h. Every 8 h, the quartz flasks were rotated in and out of the chamber, and the sample volume was determined and adjusted with ultrapure water to account for any water evaporation. During the solar irradiation experiments, the sample was adjusted to pH 6.2 and 7.2 or maintained at pH 8.2 by adding 4 mM phosphate buffer (pH 6.2, 7.2, and 8.2, respectively).
# (§1) For the DBP samples with and without sunlight, aliquots were taken at a specific reaction time. The sample aliquots were analyzed using Agilent high-performance liquid chromatography (HPLC) equipped with a Poroshell 120 EC-C18 column (4.6 × 150 mm, 4 µm particle size, Agilent) and a UV detector. The mobile phase, consisting of water (pre-adjusted to pH 2 with phosphoric acid) and acetonitrile at 50/50 (v/v), was applied at a flow rate of 1.0 mL min^−1. PCMX, 2,4-dihalophenols and 5-halosalicylic acids were detected at the wavelength of 230 nm. 2,5-Dihalohydroquinones and 2,6-DCQ were detected at the wavelength of 280 nm. All the degradation experiments were conducted in duplicate.
# [2] = Degradation in seawater in darkness (pH 6.2, 7.2, 8.2); settings: for half-life at 10 mg L−1: buffer; for Ln (C/C0): 0 h
# Method: To study the DBP degradation in seawater in darkness, a DBP was added at 10 mg L^−1 to 50 mL pretreated seawater (pH 8.2) in the quartz flasks. The flasks were wrapped with aluminum foil to simulate the dark condition. The samples were kept at 20 °C in darkness for 0‒120 h, during which the sample was adjusted to pH 6.2 and 7.2 or maintained at pH 8.2 by adding 4 mM phosphate buffer (pH 6.2, 7.2, and 8.2, respectively).
# as §1
compound,measurement,setting,value
"O=C1C=C(Cl)C(=O)C(Cl)=C1 [2,6-DCQ, 2,6-dichlorobenzoquinone]",Dose for achieving 3-log inactivation of S. aureus,S. aureus (ATCC 25923),28.6 mg L−1
same,S. aureus inactivation rate constant k,S. aureus (ATCC 25923),20200 µL/min/mg
same,Normal development,"P. dumerilii embryos; degradation 0 h, dilution factor 12.8",7.407% and 6.667%
same,Normal development,"P. dumerilii embryos; degradation 0 h, dilution factor 17.0667",16.2963% and 20.7921%
same,Normal development,"P. dumerilii embryos; degradation 0 h, dilution factor 21.3333",42.1875% and 37.2727%
same,Normal development,"P. dumerilii embryos; degradation 0 h, dilution factor 25.6",62.0155% and 62.3077%
same,Normal development,"P. dumerilii embryos; degradation 0 h, dilution factor 32",80% and 80.822%
same,Normal development,"P. dumerilii embryos; degradation 0 h, dilution factor 42.6667",76.7442% and 82.4428%
same,Normal development,"P. dumerilii embryos; degradation 1 h, dilution factor 6.4",1.886% and 1.145%
same,Normal development,"P. dumerilii embryos; degradation 1 h, dilution factor 8.5333",4.186% and 11.8136%
same,Normal development,"P. dumerilii embryos; degradation 1 h, dilution factor 10.6667",24.138% and 24.6154%
same,Normal development,"P. dumerilii embryos; degradation 1 h, dilution factor 12.8",51.5152% and 47.1698%
same,Normal development,"P. dumerilii embryos; degradation 1 h, dilution factor 16",70.5883% and 65.2173%
same,Normal development,"P. dumerilii embryos; degradation 2 h, dilution factor 6.4",11.0368% and 10.1754%
same,Normal development,"P. dumerilii embryos; degradation 2 h, dilution factor 8.5333",46.773% and 42.9328%
same,Normal development,"P. dumerilii embryos; degradation 2 h, dilution factor 10.6667",58.0645% and 64.2277%
same,Normal development,"P. dumerilii embryos; degradation 2 h, dilution factor 12.8",77.7778% and 71.0938%
same,Normal development,"P. dumerilii embryos; degradation 2 h, dilution factor 16",82.2282% and 85.1792%
same,Normal development,"P. dumerilii embryos; degradation 4 h, dilution factor 1.28",3.429% and 2.688%
same,Normal development,"P. dumerilii embryos; degradation 4 h, dilution factor 1.6",15.8884% and 20.3842%
same,Normal development,"P. dumerilii embryos; degradation 4 h, dilution factor 1.8286",27.1674% and 32.6748%
same,Normal development,"P. dumerilii embryos; degradation 4 h, dilution factor 2.1333",54.2087% and 56.2379%
same,Normal development,"P. dumerilii embryos; degradation 4 h, dilution factor 2.8444",78.1453% and 71.7507%
same,Normal development,"P. dumerilii embryos; degradation 4 h, dilution factor 4.2667",76.1253% and 77.0995%
same,Normal development,"P. dumerilii embryos; degradation 6 h, dilution factor 0.8",0%
same,Normal development,"P. dumerilii embryos; degradation 6 h, dilution factor 0.9143",0%
same,Normal development,"P. dumerilii embryos; degradation 6 h, dilution factor 1.0667",6.421% and 4.805%
same,Normal development,"P. dumerilii embryos; degradation 6 h, dilution factor 1.28",19.2308% and 16.923%
same,Normal development,"P. dumerilii embryos; degradation 6 h, dilution factor 1.6",44.5256% and 45.8716%
same,Normal development,"P. dumerilii embryos; degradation 6 h, dilution factor 1.8286",55.6999% and 52.4319%
same,Normal development,"P. dumerilii embryos; degradation 10 h, dilution factor 0.3657",0%
same,Normal development,"P. dumerilii embryos; degradation 10 h, dilution factor 0.4267",10.4446% and 5.949%
same,Normal development,"P. dumerilii embryos; degradation 10 h, dilution factor 0.512",22.4806% and 12.844%
same,Normal development,"P. dumerilii embryos; degradation 10 h, dilution factor 0.64",50% and 42.3728%
same,Normal development,"P. dumerilii embryos; degradation 10 h, dilution factor 0.8533",73.1885% and 72.3577%
same,Normal development,"P. dumerilii embryos; degradation 10 h, dilution factor 1.28",86.5288% and 89.8492%
same,Normal development,"P. dumerilii embryos; degradation 24 h, dilution factor 0.2844",11.3922% and 10.426%
same,Normal development,"P. dumerilii embryos; degradation 24 h, dilution factor 0.32",28.4579%
same,Normal development,"P. dumerilii embryos; degradation 24 h, dilution factor 0.3657",46.3636% and 52.9132%
same,Normal development,"P. dumerilii embryos; degradation 24 h, dilution factor 0.4267",72.0505% and 66.5657%
same,Normal development,"P. dumerilii embryos; degradation 24 h, dilution factor 0.512",75.7656% and 68.6094%
same,Normal development,"P. dumerilii embryos; degradation 24 h, dilution factor 0.64",71.3237% and 68.0033%
same,Normal development,"P. dumerilii embryos; degradation 48 h, dilution factor 0.2695",37.7015% and 37.2985%
same,Normal development,"P. dumerilii embryos; degradation 48 h, dilution factor 0.2844",52.938% and 47.9316%
same,Normal development,"P. dumerilii embryos; degradation 48 h, dilution factor 0.32",57.0093% and 59.2105%
same,Normal development,"P. dumerilii embryos; degradation 48 h, dilution factor 0.3657",74.6032% and 77.2414%
same,Normal development,"P. dumerilii embryos; degradation 48 h, dilution factor 0.4267",81.3111% and 83.4889%
same,Toxicity relative to PCMX (times less toxic),P. dumerilii embryos; after 48-h degradation in seawater in darkness,31 times
same,"EC50,DF as share of EC50,DF of PCMX",P. dumerilii embryos; after 48 h degradation in darkness,3.0%
same,half-life at 10 mg L−1,[1]; pH 6.2,4.13 h
same,half-life at 10 mg L−1,[1]; pH 7.2,3.2 h
same,half-life at 10 mg L−1,[1]; pH 8.2,1.33 h
same,Degradation rate constant k,"[1]; pH 6.2, with solar irradiation",0.168 h⁻¹
same,Ln (C/C0),[1]; pH 6.2 with solar irradiation,0
same,Degradation rate constant k,"[1]; pH 7.2, with solar irradiation",0.217 h⁻¹
same,Ln (C/C0),[1]; pH 7.2 with solar irradiation,0
same,Ln (C/C0),"[1]; seawater pH 8.2, solar irradiation",0
same,Degradation rate constant k,"[1]; seawater pH 8.2, with solar irradiation",0.520 h‒1
same,half-life at 10 mg L−1,[2]; pH 6.2,76.2 h
same,half-life at 10 mg L−1,[2]; pH 7.2,13.4 h
same,half-life at 10 mg L−1,[2]; pH 8.2,1.74 h
same,Degradation rate constant k,"[2]; pH 6.2, without solar irradiation",0.009 h⁻¹
same,Ln (C/C0),[2]; pH 6.2 in darkness,0
same,Ln (C/C0),[2]; pH 7.2 in darkness,0
same,Ln (C/C0),"[2]; seawater pH 8.2, darkness",0
same,Degradation rate constant k,"[2]; seawater pH 8.2, without solar irradiation",0.397 h‒1
